# A melting point compilation (Tetko et al.; mined from patent text by program, amines drawn as free bases though some values may be those of a salt)
row,SMILES,melting point [°C]
1,CCOC(=O)c1ncn(S(=O)(=O)N(C)C)n1,78.5 to 81.5
2,COC1=CC(N)C(C)(Cl)C=C1 (stereo unspecified),83 to 85
3,O=C(O)CCCCCCCCCNS(=O)(=O)c1ccc(Cl)cc1,192 to 194
4,CCCCCCCCC(=O)Nc1ccc([N+](=O)[O-])cc1,76 to 76.5
5,COC(C)=CC(=O)Nc1cccc(N(C)C(N)=O)c1,166
6,CCOC(=O)Cc1nsc(Nc2ccc(F)c(F)c2)n1,84 to 90
7,OC1(C(Cl)Cl)O[C@H](COCc2ccccc2)[C@@H](OCc2ccccc2)[C@H](OCc2ccccc2)[C@H]1OCc1ccccc1 (stereo partly specified),72 to 73
8,Cc1sc(C)c(NC(=S)Nc2c(Cl)cccc2Cl)c1N,143 to 148
9,O=C1CC[C@]2(C[C@H]3CC[C@@H]2C3)C(=O)N1 (racemic),154 to 156
10,CCNC(=O)c1cc(Br)sc1[Si](C)(C)C,96 to 98
11,CC[C@H](C(=O)O)[C@H](N)C(=O)O,239 to 241
12,O=S(=O)(CCO)Cc1ccc(CS(=O)(=O)CCO)cc1,210 to 212
13,CCOC(=O)c1c(-c2cc(C)c(O)c(C)c2)c(C)n2c1-c1cc(OC)c(OC)cc1C(C)(C)C2,200 to 202
14,CC(C)c1cc(C(C)C)c(CC(=O)NS(=O)(=O)Oc2c(C(C)C)cc(O)cc2C(C)C)c(C(C)C)c1,182 to 183
15,CN1CC(N2CC(=O)NC2=O)CC2c3cccc4[nH]cc(c34)CC21 (stereo unspecified),295 to 297
16,O=S(=O)(Nc1ccc(Cl)c(Cl)c1)c1cc(S(=O)(=O)Nc2ccc(Cl)c(Cl)c2)c2cc(O)ccc2c1,158 to 160
17,CCOC(=O)NC[C@H]1CN(c2ccc3c(c2)CCCc2cnoc2-3)C(=O)O1,181 to 183
18,CC1(C)CC(=O)C(C(=O)c2cccc3nnsc23)C(=O)C1,168 to 170
19,CC(=O)SCC(=O)C1CCC2C3CCC4CC(O)C(N5CCOC(C)(C)C5)CC4(C)C3C(=O)CC12C (stereo unspecified),181 to 182
20,N#Cc1ccccc1F,98 to 100
21,CC(=NOCC(=O)O)c1ccc(Cl)cc1,116
22,CN(C)CCOc1ccc(Cl)c(C(=O)NCC23CC4CC(CC(C4)C2)C3)c1,144 to 147
23,CC(C)C(NC(=O)OC(C)(C)C)C(=O)NC(C(=O)OC1CC(n2cc(C=CBr)c(=O)[nH]c2=O)OC1CCl)C(C)C (stereo unspecified),114 to 116

row,SMILES,melting point [°C]
1,Cc1noc(NC(=O)N2CCN(c3nccc(-c4cccc(F)c4F)n3)CC2)c1C,193 to 194
2,N#Cc1cc(N2CCCCC2)ccc1[N+](=O)[O-],126 to 127
3,CCOC(=O)C(CC=C(C)C=CC1=C(C)CCCC1(C)C)C(C)=O (stereo unspecified),152
4,CN(C(=O)O)c1cccc(-c2ccnc3c(C(=O)c4cccs4)cnn23)c1,215 to 217
5,Cc1cc(C)c2c(c1)C=C(C(=O)O)CC2,194 to 195
6,Cc1ccc(S(N)(=O)=O)cc1C(O)CCl (stereo unspecified),126
7,O=C(CC1CCC2(CC1)OCCO2)N1CCN(c2ccccn2)CC1,113 to 116
8,CCCCCCCCCCCCCCCCCCOc1cc(C(=O)OC)c([N+](=O)[O-])c(C(=O)OC)c1,65 to 68
9,COc1ccc(N2CCOCC2)c2sc(-c3nc4ccc(N(C)C)nc4[nH]3)nc12,120 to 130
10,Cc1ccc([N+](=O)[O-])cc1COCC(F)(F)C(F)(F)F,53.5 to 54.5
11,NC(CC(=O)O)c1ccc2c(c1)OCCO2 (stereo unspecified),222 to 223
12,CCSc1nc2c(cc1F)c(=O)c(C(=O)O)cn2CC,219 to 221
13,CCN(CC)C(=O)c1ccc(C(=C2CCNCC2)c2cccc3cccnc23)cc1,> 170
14,CCCCCC(CC(=O)Nc1cc(C(N)=O)ccc1C(C)(C)C)c1cc(C(=O)OC)c(OC)cc1OC (stereo unspecified),101 to 103
15,NC(=O)CCCON1CCNC1=Nc1c(Cl)cccc1Cl,140 to 141
16,CCCn1nnn(-c2cc(C)c(Cl)cc2Cl)c1=O,47 to 48
17,CN(C)S(=O)(=O)Oc1cc(-n2c(=O)cc(C(F)(F)F)n(C)c2=O)c(F)cc1Cl,118 to 120
18,CN(C)c1nc(C(F)(F)F)cc(=O)n1-c1cc(F)c(C#N)cc1F,147
19,C#CC(C)(O)CCC=C(C)CCC=C(C)CCC=C(C)CCC=C(C)CCC=C(C)CCC=C(C)CCC=C(C)CCC=C(C)CCC=C(C)CCC=C(C)C (stereo unspecified),35.5 to 36.5
20,CCOC(=O)COc1cc2cc(C(C)O)sc2c(Cl)c1Cl (stereo unspecified),101 to 103
21,COc1cc(C=O)c(Br)c(Cl)c1OC,118 to 119
22,CCN(CC)C(=O)c1nc(C)n2c1CN=C(c1ccccc1F)c1cc(Cl)ccc1-2,182 to 188
23,CN(C)c1cccc(CSC2NC(=S)NC2(C)C)c1 (stereo unspecified),178 to 179

# Results, then the compound that gave them:
row,melting point [°C],SMILES
1,80 to 84,COc1ccccc1C=CCN1CCc2nc(N)sc2CC1
2,106 to 109,CCOC(=O)c1ccc(NCCCc2ccccc2OC)cc1
3,116,CC(=O)c1ccccc1NC(c1c(Cl)cccc1Cl)C1CC1 (stereo unspecified)
4,266 to 267,CC1(C)Oc2ccc(C#N)cc2[C@H](N(Cc2ncc[nH]2)c2ccc(Cl)cc2)[C@H]1O
5,206 to 208,COCCc1sc2ncnc(N)c2c1-c1ccc(NS(=O)(=O)c2ccccc2)cc1
6,188 to 189,CCCCC(C(=O)Nc1c(C(C)C)cccc1C(C)C)C1c2ccccc2Oc2ccccc21 (stereo unspecified)
7,> 260,CCc1cc2[nH]c(=O)c(-c3ccccc3)cc2c(CC)n1
8,162 to 164,Cc1cn2c(C(F)(F)F)nnc2c2ccccc12
9,152 to 154,CC(=O)c1ccc2c(c1)oc(=O)n2CCCN1CCC(c2noc3cc(F)ccc23)CC1
10,> 300,CCCn1c(=O)[nH]c(=O)c2nc(-c3ccc(/C=C/C(=O)O)cc3)[nH]c21
11,170 to 171,COc1ccc(Cc2cc(C3CCN(C(=O)c4ccccc4)CC3)nc(N)n2)cc1
12,56 to 58,COc1cc(C=C2C(=O)CCc3cc(Cl)ccc32)c([N+](=O)[O-])cc1OC
13,90 to 91,Cc1ccc(S(=O)(=O)OC[C@H]2COc3ccc(Cl)cc3O2)cc1
14,67 to 70,Cc1c(-c2ccccc2)c(N2CC[C@@H](N(C)C)C2)c2oc(C(=O)N(C)C)nc2c1C#N
15,202 to 204,CC(=O)Nc1nc(-c2ccccc2)c(-c2ccc(=O)n(C(C)C)n2)s1
16,117 to 118,CCOC(=O)c1ccc2c(c1)N=C(C)c1ccc(OC)cc1O2
17,223 to 227,COc1ccc(-c2ccc3nc(N)c4ncn(CC(C)C)c4c3c2)c(OC)c1
18,129 to 131,COc1ccc(F)c2c(OC)c(C=O)ccc12
19,80.5 to 82.5,CC(C)(C)OC(=O)C(C)(C)N1COC(CF)=C(c2ccccc2)C1=O
20,98 to 99,CC(C)Oc1cccc2oc(-c3ccccc3)cc(=O)c12
21,212 to 216,CN(C)CCNc1ccc2c3c(nn2C)-c2ccncc2C(=O)c13
22,83 to 85,N#CC(Cn1ccnc1)(c1ccccc1)c1ccccn1 (stereo unspecified)
23,174 to 175,CNC(=O)c1cccc(NC(=O)Cc2ccc(C)cc2)c1
24,124 to 125,Cc1ccc(C2OC(=O)N(C(=O)NN3CCOCC3)C2C)cc1 (stereo unspecified)
25,141 to 143,O=S(=O)(Nc1ccc(I)cc1)c1ccccc1
26,> 330,S=C1Cc2c([nH]c3ccc(Br)cc23)-c2ccccc2N1
27,99 to 100,CCCCOc1ccc(S(=O)(=O)N2CCC(NCc3ccccc3)C2)cc1 (stereo unspecified)
28,211 to 213,Cc1cc(C2=CCN(S(=O)(=O)C3(C(=O)O)CCOCC3)CC2)ccc1-c1ccccc1

row,melting point [°C],SMILES
1,154 to 155,OC1CCCc2nc3ccccc3c(NCc3cccc(C(F)(F)F)c3)c21 (stereo unspecified)
2,181 to 182,N#Cc1ccc(Nn2cnnc2)cc1-c1ccccc1
3,48.5 to 49,CCOC(=O)c1ccc2ccccc2c1O
4,181 to 182,COc1cc2c(cc1OC)C1(CCC(C(=O)O)(C(=O)O)CC1)N(C(=O)OCc1ccccc1)CC2
5,283 to 286,O=C(O)C1Cc2c(c(Br)cc3c(=O)c4ccccc4oc23)O1 (stereo unspecified)
6,225 to 227,COc1ccn2c(Cl)c(CCc3ccc4nc(N)oc4c3)nc2c1
7,136 to 139,COc1ccc2c(c1)C(N=Cc1ccc(O)c(OC)c1)CCO2 (stereo unspecified)
8,193 to 194,O=CC(=C(c1ccc(F)cc1)c1ccc(F)cc1)n1nnnc1-c1ccccc1
9,195,Cc1ccc(S(=O)(=O)Nc2cccc([N+](=O)[O-])c2N)cc1
10,174 to 176,COc1ccc(C(=C/C=C/C(=O)O)c2ccc(OC)c(OC)c2)cc1OC
11,98,N#Cc1ccc(C(Cc2ccc(C#N)cn2)Cn2cncn2)cc1 (stereo unspecified)
12,50 to 52,O=[N+]([O-])c1ccc(C(O)c2ccoc2)cc1 (stereo unspecified)
13,178 to 180,COc1ccc2c(c1)c(CC(=O)O)c(C)n2C(=O)c1ccc([N+](=O)[O-])o1
14,131 to 132,O=C1NC(=O)N(CCCc2ccccc2)C1O (stereo unspecified)
15,84 to 85,CC(C)(C)OC(=O)NNCc1ccc(-c2ccccc2)cc1
16,180 to 182,Cc1nc(Oc2ccccc2)c2nc(C)n(CCNC(=O)OC(C)(C)C)c2c1C
17,186,O=C1Cc2cccc(C(=O)c3ccc(Cl)cc3)c2N1
18,169 to 170,Cc1ccc(C2=N[C@H](c3ccccc3)CO2)cc1C#CCN(O)C(N)=O
19,127 to 130,COc1cccc(CNC(=O)c2nc3cccc(OCCN4CCC(C(=O)O)CC4)c3c(=O)[nH]2)c1
20,192 to 193,O=C(N[C@H](Cc1cccc(OCC(F)(F)F)c1)[C@@H](O)c1ccc(F)cc1)c1ccc(F)c2ccccc12 (racemic)
21,191 to 192,CCOC(=O)c1cc2ccc(Cl)c(NS(=O)(=O)c3cccs3)c2[nH]1
22,93 to 95,CC(Br)c1ccc2c(=O)c3ccccc3ccc2c1 (stereo unspecified)
23,127,O=C(C=Cc1ccc(COC2OC(CO)C(O)C(O)C2O)o1)c1ccccc1 (stereo unspecified)
24,64,CN(Cc1ccccc1)C1c2ccccc2CC1O (stereo unspecified)
25,98.1 to 99.9,CCCCCCC(C)Oc1ccc(C(=O)O)cc1C#N (stereo unspecified)
26,93 to 94,O=C(CCCC(=O)Oc1ccc(C(=O)OCc2ccccc2)cc1)Oc1ccc(C(=O)OCc2ccccc2)cc1
27,126 to 128,CC(C)n1cc(-c2ccc3nnn(Cc4ccc5ncccc5c4)c3n2)cn1
